In patent US9227955B2, “Compound having angiogenesis inhibitory activity, method for preparing same, and pharmaceutical composition comprising same” (Boryung Pharmaceutical Co., Ltd., priority 2011, dated 2016):
Entries after “also recorded” stand apart in the source; their conditions may differ. Marks after values point to notes of the source that are not given here.

Columns and labels:
HUVECs [1] = experiment: Wound healing assay, VEGF-induced migration of HUVECs; assay type: cell-based, human; details: for suppression of VEGF-induced migration of HUVECs, in words: wound healing assay, text on Tables 5 and 6
Procedure: Using a sterile, disposable cell scraper (BD Falcon, Bedford, USA), a monolayer of HUVECs was scraped, and the cells were gently washed with PBS. […] After 24 hours, the cell migration were monitored through the scraped monolayer of the cell and photographed under a microscope equipped with a camera (Canon Powershot640).
Also, Compound 250 (Example 26) was applied at various concentrations shown in Table 6 in the same manner as Compound 103, followed by monitoring and photographing the migration of the cells under the microscope. For comparison, the cells were not treated (control) or were treated with 10 ng/mL VEGF, alone.

[2] = tested on: aortic rings excised from Spague-Dawley rats; experiment: Ex vivo microvessel sprouting assay, rat aortic rings; details: 10 nM, 50 nM, 100 nM, FIG. 6
Procedure: Likewise, after the aortic rings excised from six-week-old Spague-Dawley rats were treated with various concentrations (10 nM, 50 nM, 100 nM) of Compound 250 (Example 26) and then with VEGF, Sprouts from margins of the aortic rings were photographed under a microscope equipped with a camera, like Compound 103.

[3] = Cell viability MTS assay (cytotoxicity); assay type: cell-based; details: human; A-431 cells, 48 hrs incubation; read-out: IC50, MTS assay for cytotoxicity against A-431
Procedure: A-431 ([…], human, ATCC CRL-1555™) cells grown in DMEM (Dulbeco's Modified Eagle's Medium, Gibco #11885) were seeded at a density of 1×10^4 cells/well into 96-well plates and incubated at 37° C. for 18 hrs under the supply of 5% CO2 until the cells stably adhered to the bottom. […] After incubation for 48 hrs in the presence of the test compound, the cells were assayed for viability.
The cells in each well was added with 21 μl of a mixture of 20:1 (v/v) of an MTS solution [(3-(4,5-dimethylthiazol-2-yl)-5-(3-carboxymethoxyphenyl)-2-(4-sulfophenyl)-2H-tetrazolium, Promega, Cat#65421; 2 mg/ml] and a PMS solution [Phenazine methosulfate, Sigma #P9625; 1 mg/ml], and incubated for 2 hrs, followed by measuring absorbance at 490 nm on a microplate reader (Molecular device, spectraMax M2). Relative to the control (media), viability by drug concentration was determined from the measurements of formazan, and the results are given in Table 2, below.

HUVECs [4] = experiment: BrdU incorporation assay, VEGF-induced cell proliferation in HUVECs; assay type: cell-based, human; details: for inhibition of VEGF-induced proliferation in HUVECs, in words: BrdU assay, text on Tables 7 and 8
Procedure: A BrdU incorporation assay was carried out to examine whether the proliferation of HUVECs through VEGF-induced DNA synthesis is suppressed by BRN-103. HUVECs grown as in Experimental Example 2 were seeded at a density of 1×10^4 cells/well into 96-well plates. […] Thereafter, DNA synthesis in the cells was fluorescently measured using a BrdU incorporation assay kit (Roche).
Likewise, the cells were treated with various concentrations of Compound 250 (Example 26) given in Table 8, and then with VEGF, as the same manner of that of Compound 103. Intracellular DNA was also quantified, as the same manner of that of Compound 103. For comparison, the cells were not treated (control), or were treated with 10 ng/mL VEGF, alone.

[5] = tested on: HUVECs (human umbelical vein endothelial cells); experiment: Transwell assay, VEGF-induced cell migration in HUVECs; assay type: cell-based; details: for suppression of VEGF-induced migration of HUVECs, in words: transwell assay, text on Tables 3 and 4
Procedure: To examine the inhibitory effect of the compounds obtained in the Examples on VEGF (Vascular endothelial growth factor)-induced cell migration in HUVECs (human umbelical vein endothelial cells), a transwell assay was performed as follows.
HUVECs, provided from ATCC (American Type Culture Collection), were incubated in EGM-2 (Endothelial growth Medium-2 Medium) including 10% FBS, penicillin (100 unit/ml) and 100 μg/ml streptomycin sulfate plus various growth factors at 37° C. in an atmosphere of 5% CO2. After the change of the medium with growth factor-free EBM-2 (Endothelial Basal Medium-2 Medium), the cells were subjected to transwell assay.
After for 24 hours, the cells were fixed for 1 min with ethanol and were stained with a dye. Cell migration was evaluated by counting cells which moved through the pores.
In addition, cells were treated with Compound No. 250 (Example 26) at various concentrations given in Table 3, and assayed for cell migration, as conducted with Compounds 103, 110, 218, 273, 275, 276, 290, 312, 428, 442, and 509. The results were compared with those obtained after non-treatment (no treat) or treatment with 10 ng/mL VEGF.
Results were expressed as average numbers (n=3) of HUVECs which moved cross the membrane. Test results are summarized in Table 3 for compounds 103, 110, 218, 273, 275, 276, 290, 312, 428, 442, and 509, and in Table 4 for compound 250.

HUVECs [6] = experiment: VEGF-induced tube formation of HUVECs (capillary structure formation assay); assay type: cell-based, human; details: for suppression of VEGF-induced tube formation, in words: Tables 9 and 10
Procedure: After HUVECs were seeded at a density of 3×10^5 cells/well into Matrigel-coated 48-well plates, HUVECs were with 10 ng/ml VEGF for 4 hrs. The HUVECs where tubes were formed were monitored and photographed under a microscope equipped with a camera to count cells.
HUVECs were also treated with Compound 250 (Example 26) at various concentrations given in Table 10, The HUVECs where tubes were formed were monitored and photographed under a microscope equipped with a camera, like Compound 103.

[7] = tested on: Aortic rings excised from C57BL/6 mice; experiment: Ex vivo microvessel sprouting assay, mouse aortic rings; details: mouse aortic rings, 0.1, 0.5, 1 μM, 10 ng/ml VEGF 7 days, FIG. 5
Excerpt: Sprouts from margins of the aortic rings were photographed under a microscope equipped with a camera.

[8] = tested on: AKT (serine/threonine protein kinase B); experiment: VEGF-induced AKT activation in HUVECs (Western blot); assay type: cell-based, human; details: HUVECs pretreated 1 hr, VEGF 10 ng/ml 30 min, FIG. 9
Procedure: (§1) An examination was made to see the effect of compounds of Chemical Formula I, prepared in the Examples above, on VEGF-induced activation of AKT (serine/threonine protein kinase B)/ERK (Extracellular signal-regulated kinases) and eNOS (endothelial nitric oxide synthase) in HUVECs, as follows (endothelial nitric oxide synthase).
(§2) After 3 min of centrifugation at 4000 rpm to collect the cells, the cell pellet was washed once with PBS (phosphate buffered saline). The cell pellet suspended in a lysis buffer (50 mM HEPES pH 7.0, 250 mM NaCl, 5 mM EDTA, 0.1% Nonidet P-40, 1 mM phenylmethylsulfonyl fluoride and 0.5 mM Na orthovanadate) containing 5 μl/mL of leupeptin and aprotinin, each and the reaction was performed at 4° C. for 20 min. After the cell debris was removed by microcentrifugation, the supernatant was swiftly cooled.
(§3) Protein quantification was carried out using a Bio-Rad protein assay reagent. […]
(§4) For immunoblotting, the membrane was incubated overnight at 4° C. in a blocking solution (5% skim milk), and reacted with a primary antibody for 4 hrs. After 4 washes with Tween 20/Tris-buffered saline (TTBS), the membrane was reacted with a 1:1000 (v/v) dilution of a horseradish peroxidase-conjugated secondary antibody at room temperature for 1 hr, washed three times with TTBS, and visualized by a chemical luminescence method (Amersham Life Science).

[9] = tested on: ERK (Extracellular signal-regulated kinases); experiment: VEGF-induced ERK activation in HUVECs (Western blot); assay type: cell-based, human; details: HUVECs pretreated 1 hr, VEGF 10 ng/ml 10 min, FIG. 9
Procedure: as §1, §2, §3, §4

[10] = tested on: eNOS (endothelial nitric oxide synthase); experiment: VEGF-induced eNOS activation in HUVECs (Western blot); assay type: cell-based, human; details: HUVECs pretreated 1 hr, VEGF 10 ng/ml 1 hr, FIG. 9
Procedure: as §1, §2, §3, §4

[11] = 1 μM, 10 ng/ml VEGF 24 hrs, n=3

CC(c1ncnc(Cl)c1F)N1CCC(Nc2ncccc2C(=O)Nc2cccc(Cl)c2)CC1 (stereo not shown) [Compound 250, 2-{1-[1-(6-chloro-5-fluoropyrimidin-4-yl)ethyl]piperidin-4-ylamino}-N-(3-chlorophenyl)nicotinamide]
Wound closure (HUVECs [1]; 100 nM, without VEGF): 125 µm | Wound closure (HUVECs [1]; VEGF + 25 nM): 210 µm | Wound closure (HUVECs [1]; VEGF + 50 nM): 165 µm | Wound closure (HUVECs [1]; VEGF + 100 nM): 120 µm | suppression of VEGF-induced migration of HUVECs, in words (HUVECs [1]): highly suppresses VEGF-induced migration of HUVECs | VEGF-induced aortic sprouting [2]: inhibited VEGF-induced aortic sprouting | IC50 at 48 h [3]: 26.1 µM | BrdU incorporation (HUVECs [4]; 100 nM, without VEGF): 0.7 ± 0.05 OD 450 nM | inhibition of VEGF-induced proliferation in HUVECs, in words (HUVECs [4]): inhibited VEGF-induced proliferation in HUVECs | BrdU incorporation (HUVECs [4]; VEGF + 25 nM): 0.79 ± 0.02 OD 450 nM | BrdU incorporation (HUVECs [4]; VEGF + 50 nM): 0.75 ± 0.03 OD 450 nM | BrdU incorporation (HUVECs [4]; VEGF + 100 nM): 0.7 ± 0.05 OD 450 nM | No. of migration cells/field ([5]; 100 nM, without VEGF): 4.5 ± 1.11 cells/field | No. of migration cells/field ([5]; VEGF + 25 nM): 33 ± 2.54 cells/field | No. of migration cells/field ([5]; VEGF + 50 nM): 20.3 ± 1.08 cells/field | No. of migration cells/field ([5]; VEGF + 100 nM): 12.5 ± 2.5 cells/field | suppression of VEGF-induced migration of HUVECs, in words [5]: remarkable suppressive effect | Number of tubes/field (HUVECs [6]; 100 nM, without VEGF): 27 ± 2 tubes/field | suppression of VEGF-induced tube formation, in words (HUVECs [6]): high suppressive effect on tube formation | Number of tubes/field (HUVECs [6]; VEGF + 25 nM): 45 ± 6 tubes/field | Number of tubes/field (HUVECs [6]; VEGF + 50 nM): 35 ± 2 tubes/field | Number of tubes/field (HUVECs [6]; VEGF + 100 nM): 28 ± 4 tubes/field

CCN(CC)CCNC(=O)c1c(C)[nH]c(/C=C2\C(=O)Nc3ccc(F)cc32)c1C [Sunitinib, sunitinib, reference compound]
Wound closure (HUVECs [1]; VEGF + 1 μM, 24 hrs): 210 µm | IC50 at 48 h [3]: 22 µM | BrdU incorporation (HUVECs [4]; VEGF + 1 μM, 24 hrs): 0.84*** OD 450 nm | No. of migration cells/field [5, 11]: 16.5*** cells/field | Number of tubes/field (HUVECs [6]; VEGF + 1 μM, 4 hrs): 100*** tubes/Field

O=C(Nc1cccc(Cl)c1)c1cccnc1NC1CCN(Cc2ccccc2)CC1 [Compound 103, 2-(1-Benzylpiperidin-4-ylamino)-N-(3-chlorophenyl)nicotinamide]
Wound closure (HUVECs [1]; VEGF + 0.1 μM, 24 hrs): 200 µm | Wound closure (HUVECs [1]; VEGF + 0.5 μM, 24 hrs): 180 µm | Wound closure (HUVECs [1]; VEGF + 1 μM, 24 hrs): 155 µm | suppression of VEGF-induced migration of HUVECs, in words (HUVECs [1]): higher efficiency than sunitinib | IC50 at 48 h [3]: 40.6 µM | BrdU incorporation (HUVECs [4]; 1 μM, without VEGF): 0.7 OD 450 nm | inhibition of VEGF-induced proliferation in HUVECs, in words (HUVECs [4]): inhibited VEGF-induced proliferation in HUVECs in a dose-dependent manner | BrdU incorporation (HUVECs [4]; VEGF + 0.1 μM, 24 hrs): 1.0*** OD 450 nm | BrdU incorporation (HUVECs [4]; VEGF + 0.5 μM, 24 hrs): 0.8*** OD 450 nm | BrdU incorporation (HUVECs [4]; VEGF + 1 μM, 24 hrs): 0.7*** OD 450 nm | No. of migration cells/field ([5]; 0.1 μM, 10 ng/ml VEGF 24 hrs, n=3): 16*** cells/field | No. of migration cells/field ([5]; 0.5 μM, 10 ng/ml VEGF 24 hrs, n=3): 12*** cells/field | No. of migration cells/field [5, 11]: 8*** cells/field | suppression of VEGF-induced migration of HUVECs, in words [5]: more suppressive than the anticancer agent sunitinib | VEGF-induced aortic sprouting [7]: inhibited VEGF-induced aortic sprouting | expression of p-AKT [8]: decreased the expression of p-AKT | expression of p-ERK [9]: did not suppress the expression of p-ERK | suppression of VEGF-induced tube formation, in words (HUVECs [6]): more efficient in the inhibition of tube formation than sunitinib; also recorded: VEGF-induced tube formation was also suppressed | Number of tubes/field (HUVECs [6]; VEGF + 0.1 μM, 4 hrs): 90** tubes/Field | Number of tubes/field (HUVECs [6]; VEGF + 0.5 μM, 4 hrs): 80*** tubes/Field | Number of tubes/field (HUVECs [6]; VEGF + 1 μM, 4 hrs): 60*** tubes/Field | p-eNOS level [10]: downregualted
